{"source": "patent US11326165B1", "about": "“Methods and compositions for modulating splicing” (SKYHAWK THERAPEUTICS, INC., priority 2017, dated 2022)", "key": {"A673 xenografts": {"system": "A673 xenografts", "assay": "A673 xenografts in nude mice, tumor growth inhibition", "format": "in vivo", "settings": "A673 xenograft (FIGS. 20A-B)", "description": "Dose range and time course studies comparing anti-neoplastic effects of SMSM−167 and SMSM−151 against vehicle were conducted.\nFemale NCrNu mice were used. Age range of enrolment was 7-10 weeks. A total of 75 animals were for the studies.\nThe A673 tumor cell line was maintained in vitro as a monolayer culture. […] The cells growing in an exponential growth phase were harvested and counted for tumor inoculation.\nEach mouse were inoculated into a right flank with the single cell suspension of 95% viable tumor cells (5×10^6 cells/mouse) in serum-free RPMI 1640 Media for tumor development. Treatments were administered when mean tumor size reached approximately 75 mm^3.\nBefore commencement of treatment, all animals were weighed and assigned to treatment groups using a randomization procedure. Mice were randomized into groups based upon their tumor sizes to ensure that each group had approximately the same mean tumor size and range of tumor size.\nAfter inoculation, the animals were checked daily for morbidity and mortality. At the time of routine monitoring, the animals were checked for any effects of tumor growth on normal behavior such as mobility, food and water consumption, body weight gain/loss, eye/hair matting and any other abnormal effects. Deaths and observed clinical signs were recorded.\nBody weight were measured prior to tumor inoculation and prior to the treatment administration and then daily. Tumor size were measured 2-3 times per week in two dimensions using a caliper, and the volume were expressed in mm^3 using the formula: V=0.5×a×b^2 where a and b are the long and short diameters of the tumor, respectively.\n(§1) Studies were terminated when the tumor size in the vehicle treated group reached 2,000 mm^3. Each mouse was bled at 2 hrs after the last dose and at least 50 μl of plasma were collected from each mouse. All of the collected plasma samples and retainer dosing solutions for each dose level were used for bioanalytical measurements. All tumors were also collected and weighed. One necrosis-free tumor fragment of approximately 50 mg was taken from each tumor and flash-frozen for RNA isolation. The remaining tumor was flash frozen for PK analysis.\n(§2) Studies were performed to assess the effects of in vivo SMSM treatment on glioblastoma, breast, pancreatic, prostate, melanoma, lymphoma and Ewing sarcoma tumors. Studies were also performed to assess the effects of in vivo SMSM treatment on mRNA levels. Immunocompromised nude mice with pre-existing glioblastoma, breast, pancreatic, prostate, melanoma, lymphoma and Ewing sarcoma xenografts were treated with vehicle or SMSMs. Tumor tissues from subcutaneous xenografts were broken into a powder using a BioPulverizer (Biospec Products, Inc.). After SMSM treatment, mRNA was isolated from the xenografts and was analyzed by qRT-PCR.\nas §1, with “Tumor size was measured 2 times per week in two dimensions using a caliper. Studies” for “Studies”, “plasma was” for “plasma were”\nThe effects of in vivo SMSM treatments on pre-existing subcutaneous glioblastoma, breast, pancreatic, prostate, melanoma, lymphoma and Ewing sarcoma xenografts were assessed. For these in vivo experiments, 1×10^6Raji, A375, A673, MDA-MB-231, BxPC-3, PC-3 or U87 (cells re-suspended in 100 μl PBS were subcutaneously injected into the flanks of nude mice. When the tumor reached approximately 100 mm^3 (volume=(¾)(π)(length/2)(width/2)^2), the treatments indicated in the tables below were initiated. […]"}, "A673 cells": {"system": "A673 cells", "assay": "Cell viability and proliferation, A673 cells (crystal violet)", "format": "cell-based", "settings": "cell proliferation IC50 in NHDF cells over A673 cells, 72 h", "description": "Small molecule splicing modulators were tested in a dose-response assay using A673 cells and NHDF cells.\nA673 cells or NHDF cells were first plated in 96-well plastic tissue culture plates (10,000 cells per well). The cells were treated with vehicle alone (DMSO), or increasing concentrations of SMSM compounds for 72 h. Following treatment, cell proliferation was determined using a crystal violet assay. The relative cell proliferation at each concentration was determined."}, "A375 xenografts": {"system": "A375 xenografts", "assay": "A375 xenografts in nude mice, tumor growth inhibition", "format": "in vivo", "settings": "A-375 xenograft (FIGS. 21A-B)", "description": "as §2\nas §1, with “Tumor size was measured 2 times per week in two dimensions using a caliper. Studies” for “Studies”, “plasma was” for “plasma were”\nThe effects of in vivo SMSM treatments on pre-existing subcutaneous glioblastoma, breast, pancreatic, prostate, melanoma, lymphoma and Ewing sarcoma xenografts were assessed. For these in vivo experiments, 1×10^6Raji, A375, A673, MDA-MB-231, BxPC-3, PC-3 or U87 (cells re-suspended in 100 μl PBS were subcutaneously injected into the flanks of nude mice. When the tumor reached approximately 100 mm^3 (volume=(¾)(π)(length/2)(width/2)^2), the treatments indicated in the tables below were initiated."}, "[1]": {"assay": "Maximum tolerable dose study (survival, body weight)", "format": "in vivo", "settings": "mice", "description": "Survival of mice after administration of SMSMs after 10 or 11 days was assessed.\nTolerance of the drug treatments was determined by measuring the weight of the mice during the period of drug administration. Body weight was measured prior to tumor inoculation and prior to the treatment administration and then daily. The changes in the final weight of the mice for the SMSM treatments were determined."}}, "data": [{"smiles": "CN(c1ccc(-c2ccc(-c3cn[nH]c3)cc2O)nn1)[C@H]1C[C@]2(C)CC[C@](C)(C1)N2", "note": "[compound 151, 2-(6-(((1R,3s,5S)-1,5-dimethyl-8-azabicyclo[3.2.1]octan-3-yl)(methyl)ami-no)pyridazin-3-yl)-5-(1H-pyrazol-4-yl)phenol]", "values": [{"measurement": "Tumor Growth Inhibition (TGI) (%)", "setting": "A673 xenografts; 10 mg/kg BID p.o., Day 3", "value": 28.03, "unit": "%"}, {"measurement": "Tumor Growth Inhibition (TGI) (%)", "setting": "A673 xenografts; 10 mg/kg BID p.o., Day 6", "value": 34.29, "unit": "%"}, {"measurement": "Tumor Growth Inhibition (TGI) (%)", "setting": "A673 xenografts; 10 mg/kg BID p.o., Day 10", "value": 22.09, "unit": "%"}, {"measurement": "Tumor Growth Inhibition (TGI) (%)", "setting": "A673 xenografts; 10 mg/kg BID p.o., Day 13", "value": 30.12, "unit": "%"}, {"measurement": "Tumor Growth Inhibition (TGI) (%)", "setting": "A673 xenografts; 20 mg/kg BID p.o., Day 3", "value": 37.61, "unit": "%"}, {"measurement": "Tumor Growth Inhibition (TGI) (%)", "setting": "A673 xenografts; 20 mg/kg BID p.o., Day 6", "value": 45.97, "unit": "%"}, {"measurement": "Tumor Growth Inhibition (TGI) (%)", "setting": "A673 xenografts; 20 mg/kg BID p.o., Day 10", "value": 55.24, "unit": "%"}, {"measurement": "Tumor Growth Inhibition (TGI) (%)", "setting": "A673 xenografts; 20 mg/kg BID p.o., Day 13", "value": 71.29, "unit": "%"}, {"measurement": "Tumor Growth Inhibition (TGI) (%)", "setting": "A673 xenografts; 30 mg/kg QD p.o., Day 3", "value": 23.90, "unit": "%"}, {"measurement": "Tumor Growth Inhibition (TGI) (%)", "setting": "A673 xenografts; 30 mg/kg QD p.o., Day 6", "value": 34.28, "unit": "%"}, {"measurement": "Tumor Growth Inhibition (TGI) (%)", "setting": "A673 xenografts; 30 mg/kg QD p.o., Day 10", "value": 17.11, "unit": "%"}, {"measurement": "Tumor Growth Inhibition (TGI) (%)", "setting": "A673 xenografts; 30 mg/kg QD p.o., Day 13", "value": 23.52, "unit": "%"}, {"measurement": "Ratio NHDF/A673 IC50", "setting": "A673 cells", "value": ">350"}, {"measurement": "Tumor Growth Inhibition (TGI) (%)", "setting": "A375 xenografts; 3 mg/kg i.p. QD *21 days, D4", "value": 15.21, "unit": "%"}, {"measurement": "Tumor Growth Inhibition (TGI) (%)", "setting": "A375 xenografts; 3 mg/kg i.p. QD *21 days, D7", "value": 18.86, "unit": "%"}, {"measurement": "Tumor Growth Inhibition (TGI) (%)", "setting": "A375 xenografts; 3 mg/kg i.p. QD *21 days, D11", "value": 27.48, "unit": "%"}, {"measurement": "Tumor Growth Inhibition (TGI) (%)", "setting": "A375 xenografts; 3 mg/kg i.p. QD *21 days, D14", "value": 41.30, "unit": "%"}, {"measurement": "Tumor Growth Inhibition (TGI) (%)", "setting": "A375 xenografts; 3 mg/kg i.p. QD *21 days, D18", "value": 62.06, "unit": "%"}, {"measurement": "Tumor Growth Inhibition (TGI) (%)", "setting": "A375 xenografts; 3 mg/kg i.p. QD *21 days, D21", "value": 55.77, "unit": "%"}, {"measurement": "Tumor Growth Inhibition (TGI) (%)", "setting": "A375 xenografts; 10 mg/kg p.o. BID *21 days, D4", "value": 22.49, "unit": "%"}, {"measurement": "Tumor Growth Inhibition (TGI) (%)", "setting": "A375 xenografts; 10 mg/kg p.o. BID *21 days, D7", "value": 28.98, "unit": "%"}, {"measurement": "Tumor Growth Inhibition (TGI) (%)", "setting": "A375 xenografts; 10 mg/kg p.o. BID *21 days, D11", "value": 48.28, "unit": "%"}, {"measurement": "Tumor Growth Inhibition (TGI) (%)", "setting": "A375 xenografts; 10 mg/kg p.o. BID *21 days, D14", "value": 49.06, "unit": "%"}, {"measurement": "Tumor Growth Inhibition (TGI) (%)", "setting": "A375 xenografts; 10 mg/kg p.o. BID *21 days, D18", "value": 58.41, "unit": "%"}, {"measurement": "Tumor Growth Inhibition (TGI) (%)", "setting": "A375 xenografts; 10 mg/kg p.o. BID *21 days, D21", "value": 50.32, "unit": "%"}, {"measurement": "Tumor Growth Inhibition (TGI) (%)", "setting": "A375 xenografts; SMSM-151 group 1.5 mg/kg i.p. BID *21 days, D4", "value": 21.81, "unit": "%"}, {"measurement": "Tumor Growth Inhibition (TGI) (%)", "setting": "A375 xenografts; SMSM-151 group 1.5 mg/kg i.p. BID *21 days, D7", "value": 13.08, "unit": "%"}, {"measurement": "Tumor Growth Inhibition (TGI) (%)", "setting": "A375 xenografts; SMSM-151 group 1.5 mg/kg i.p. BID *21 days, D11", "value": 24.17, "unit": "%"}, {"measurement": "Tumor Growth Inhibition (TGI) (%)", "setting": "A375 xenografts; SMSM-151 group 1.5 mg/kg i.p. BID *21 days, D14", "value": 34.70, "unit": "%"}, {"measurement": "Tumor Growth Inhibition (TGI) (%)", "setting": "A375 xenografts; SMSM-151 group 1.5 mg/kg i.p. BID *21 days, D18", "value": 39.27, "unit": "%"}, {"measurement": "Tumor Growth Inhibition (TGI) (%)", "setting": "A375 xenografts; SMSM-151 group 1.5 mg/kg i.p. BID *21 days, D21", "value": 36.89, "unit": "%"}, {"measurement": "Outcome", "setting": "[1]; IP, 1 mg/kg, QDx11", "value": "All survived"}, {"measurement": "Outcome", "setting": "[1]; PO, 10 mg/kg, BIDx11", "value": "All survived"}, {"measurement": "Outcome", "setting": "[1]; PO, 10 mg/kg, QDx11", "value": "All survived"}]}]}
